Experimental data from article PMC8519103 (Chemmedchem, 2021).
“And” between values parts separate entries of the source, which are not always exact repeats. Equal entries are not always repeated.

System: M. bovis BCG
Experiment: microbe, parasite or virus in culture
Type: cell-based, Mycobacterium bovis DSM-43990 (BCGT)
Settings: not given

| Compound | MIC50 relative to KD (MIC50 = x × KD) |
| --- | --- |
| C=CC(c1ccc(-c2ccc(OC)c(OC)c2)cc1)n1ccnc1 (stereo not drawn) [Compound S3, 1‐(1‐(3’,4’‐dimethoxy‐[1,1’‐biphenyl]‐4‐yl)allyl)‐1H‐imidazole] | > 2 |
| C=CC(c1ccc(-c2ccc(OC)c(C)c2)cc1)n1ccnc1 (stereo not drawn) [Compound S4, 1‐(1‐(4’‐methoxy‐3’‐methyl‐[1,1’‐biphenyl]‐4‐yl)allyl)‐1H‐imidazole] | > 2 |
| C=CC(c1ccc(-c2ccc3c(c2)OCO3)cc1)n1ccnc1 (stereo not drawn) [Compound S5, 1‐(1‐(4‐(benzo[d][1,3]dioxol‐5‐yl)phenyl)allyl)‐1H‐imidazole] | > 2 |
| C=CC(c1ccc(-c2ccc3c(c2)OCO3)cc1F)n1ccnc1 (stereo not drawn) [Compound S8] | > 2 |
| C=CC(c1ccc(-c2ccc3[nH]ccc3c2)cc1)n1ccnc1 (stereo not drawn) [Compound S10, 5‐(4‐(1‐(1H‐imidazol‐1‐yl)allyl)phenyl)‐1H‐indole] | > 2 |

Same assay, conditions: Mycobacterium tuberculosis variant bovis BCG, BCG, read-out: MIC50

| Compound | IC50 |
| --- | --- |
| Clc1ccc(COC(Cn2ccnc2)c2ccc(Cl)cc2Cl)cc1 (stereo not drawn) [Econazole, reference compound] | 2.6 µg/mL and 12.7 µM |
